Assay results from paper PMC4253628, “Antiviral effects against EV71 of pimprinine and its derivatives isolated from Streptomyces sp” (Virology Journal, 2014).

Key:
[1] = system: EV71; assay: microbe, parasite or virus in culture; conditions: Enterovirus A, EV71, RD, 48 h, read-out: EC50, compound concentration required to achieve 50% protection from virus-induced cytopathogenicity
Method: (§3) Cell viability was assessed by an MTT assay, which functions based on the reduction of a MTT into formazan dye by active mitochondria. The cells were treated with 100 μL of MTT (1 mg/mL, Sigma) and incubated at 37°C for 4 h. The reaction was blocked by DMSO and measured in a microplate reader (Bio-Tek Instruments) at 492 nm. The untreated control was arbitrarily set as 100%.
(§4) Confluent cell monolayers in 96-well dishes were infected with 100 TCID50 of corresponding virus dilution mixed with serial dilutions of tested compounds for 1 h at 37°C. Inocula were aspirated and the cells were then incubated with various concentrations of DMEM/tested compounds at 37°C, 5% CO2 for 48 h. CPE were observed microscopically and the viability of the cells was determined using MTT assays. […] The concentrations required for the tested compounds to achieve 50% protection of cells from virus-induced CPE were determined.

[2] = system: ADV-7; assay: Virus yield reduction assay, ADV-7; format: cell-based, adenovirus 7; conditions: Human mastadenovirus B; HeLa cells; read-out: EC90 ADV-7, concentration required to inhibit 90% virus yield
[3] = system: HSV-1; assay: Virus yield reduction assay, HSV-1; format: cell-based, herpes simplex virus 1; conditions: Hep-2 cells; — = less than 90% inhibition
[4] = Cytotoxicity, ATPLite luminescence-based assay, HeLa cells; format: cell-based; conditions: human
Text: (§1) The ATPLite assay may be more sensitive to cytotoxicity than the MTT method. For RD and Hep-2 cells, similar results were obtained, and for HeLa and MDCK cells, the values of CC50 from the ATPLite assay were smaller than those from MTT assays (Tables 1, 2 and 3).

[5] = Cytotoxicity, MTT method, Hep-2 cells; format: cell-based; conditions: human, uninfected Hep-2 cells; host cells of CVB3: Hep-2, MTT, 48 h; read-out: CC50 (CVB3)
Method: (§2) The 50% cell cytotoxic concentrations (CC50s) of compounds were calculated using SPSS software. SI were calculated from the ratio of CC50: EC50.

[6] = system: EV71; assay: Progeny virus yield reduction, EV71 in RD cells; format: cell-based, Enterovirus 71
[7] = system: EV71; assay: Dependence of anti-EV71 activity on virus inoculum (cell viability, MTT) in RD cells; format: cell-based, Enterovirus 71
[8] = system: CVB3; assay: Inhibition of CVB3-induced CPE in Hep-2 cells
Method: as §3, §4

[9] = Cytotoxicity, MTT method, MDCK cells; format: cell-based, canine; conditions: dog, uninfected MDCK cells, host cells of H1N1: MDCK
Method: as §2

[10] = system: EV71; conditions: EV71, RD cells
Method: as §3, §4

[11] = system: HSV-1; assay: Plaque reduction assay, HSV-1 in Hep-2 cells
Method: Confluent monolayers of Hep-2 cells, seeded in a 24-well plate, were infected with HSV-1 at a density of 60–80 plaque-forming units (PFU) per well and treated with media (pre-warmed DMEM containing 2% FBS, 0.8% low-melting agarose) mixed with or without the serially diluted tested compounds for the periods indicated following different procedures. The cells were incubated at 37°C until plaques appeared, followed by fixing with 10% formaldehyde and staining with 0.5% crystal violet. The plaques were counted by visual examination. The ratio of the number of plaques in the treated group to that in the untreated control was calculated.
A plaque reduction assay was performed to measure the inhibitory effects of the test compounds against HSV-1 infection.

[12] = system: H1N1; assay: Inhibition of H1N1-induced CPE in MDCK cells; format: cell-based, influenza virus A/human/Hubei/86/2009 (H1N1); conditions: MDCK cells
[13] = Cytotoxicity, ATPLite luminescence-based assay, Hep-2 cells; format: cell-based; conditions: human
Text: as §1

[14] = system: CVB3; assay: Virus yield reduction assay, CVB3; format: cell-based, Coxsackievirus B3; conditions: Hep-2 cells; — = less than 90% inhibition
[15] = Cytotoxicity, ATPLite luminescence-based assay, RD cells; format: cell-based; conditions: human
Text: as §1

[16] = system: ADV-7; assay: Inhibition of ADV-7-induced CPE in HeLa cells
Method: as §3, §4

[17] = Cytotoxicity, MTT method, HeLa cells; format: cell-based; conditions: human, uninfected HeLa cells; host cells of ADV-7: HeLa, MTT, 48 h; read-out: CC50 (ADV-7)
Method: as §2

[18] = system: H1N1; assay: Virus yield reduction assay, H1N1; format: cell-based, influenza virus A/human/Hubei/86/2009 (H1N1); conditions: MDCK cells; — = less than 90% inhibition
Method: Virus yield reduction assays were also carried out to evaluate further the protective effects of the tested compounds.
The virus suspension, serially diluted 10-fold with DMEM containing 2% FBS, was inoculated to cells in a 96-well plate. After 1 h incubation at 37°C in 5% CO2, unbinding virus was washed out and DMEM maintenance medium supplemented with 2% FBS was added to the cells. After 2 days, the infected cells were monitored for cytopathic effects (CPEs). The virus titer was calculated by the Reed–Muench method.

[19] = set-up: method as in PMID 11377760; conditions: in vivo, 80 mg/kg; cited from earlier work
[20] = Cytotoxicity, MTT method, uninfected RD cells; format: cell-based; conditions: human; RD cells, MTT, 48 h; mean ± SD of three experiments; read-out: CC50, compound concentration required to reduce cell viability by 50%
Method: as §2

[21] = Cytotoxicity, ATPLite luminescence-based assay, MDCK cells; format: cell-based, canine; conditions: dog
Text: as §1

For `Cc1ncc(-c2c[nH]c3ccccc23)o1` [Pimprinine, 5, 30-indolyl-2-methyloxazole], the EC50 [1] was 89 ± 18 µM, the EC90 [2] was 266 ± 14 µM and the “EC90 HSV-1, concentration required to inhibit 90% virus yield” value [3] was “— (—, less than 50% or 90% inhibition)”. The CC50 [4] was 940 ± 219 µM, the CC50 at 48 h [5] was 443 ± 35 µM and the “reduction in progeny virus titers relative to virus control” value ([6]; 80 μM, 100 TCID50 EV71, RD cells, 10 h) was “approximately 0.5 log”. The EC90 ([6]; Enterovirus A, EV71, RD cells, progeny viral yield, read-out: EC90, compound concentration required to achieve 90% virus yield reduction) was 149 ± 12 µM, the viability at 10 µM ([7]; Enterovirus A, 10 μM, 10^4 TCID50 EV71, 48 h pi) was 7% and the viability at 20 µM ([7]; Enterovirus A, 20 μM, 10^4 TCID50 EV71, 48 h pi) was 19%. The viability at 40 µM ([7]; Enterovirus A, 40 μM, 10^4 TCID50 EV71, 48 h pi) was 16%, the viability at 80 µM ([7]; Enterovirus A, 80 μM, 10^4 TCID50 EV71, 48 h pi) was 22% and the viability at 160 µM ([7]; Enterovirus A, 160 μM, 10^4 TCID50 EV71, 48 h pi) was 28%. For the same compound, the “anti-EV71 inhibition at excessive virus inoculum” value ([7]; virus concentration above 10^4 TCID50) was “no inhibition observed”, the EC50 ([8]; Enterovirus B, CVB3, HEp-2, 48 h, read-out: EC50 CVB3) was 95 ± 16 µM and the “SI CVB3, ratio CC50/EC50” value ([8]; Hep-2 cells) was 5. The CC50 at 48 h [9] was 899 ± 56 µM, the “SI (selectivity index), ratio CC50/EC50” value [10] was 16 and the “SI HSV-1, ratio CC50/EC50” value ([11]; Hep-2 cells) was 3. For the same compound, the EC50 ([11]; Human alphaherpesvirus 1, HEp-2, read-out: EC50 HSV-1) was 160 ± 18 µM, the “inhibition of H1N1 infection” value [12] was “negligible measurable inhibition” and the “EC50 H1N1” value ([12]; 100 TCID50, 48 h, CPE, — = less than 50% inhibition) was “— (—, less than 50% or 90% inhibition)”. The CC50 [13] was 403 ± 53 µM, the “EC90 CVB3, concentration required to inhibit 90% virus yield” value [14] was “—^f (—, less than 50% or 90% inhibition)” and the CC50 [15] was 1260 ± 247 µM. For the same compound, the “SI ADV-7, ratio CC50/EC50” value ([16]; HeLa cells) was 8, the EC50 ([16]; Human mastadenovirus B, HeLa, 48 h, read-out: EC50 ADV-7) was 150 ± 10 µM and the CC50 at 48 h [17] was 1140 ± 181 µM. For the same compound, the “EC90 H1N1, concentration required to inhibit 90% virus yield” value [18] was “— (—, less than 50% or 90% inhibition)”, the “protection against electrically induced convulsions” value [19] was “significant protection” and the CC50 at 48 h [20] was 1460 ± 27 µM. It also gave a CC50 [21] of 649 ± 77 µM.
